Numbering of substitutions follows the chain as printed. Where a SMILES comes first, the peptide text is derived from it. [ ]: non-standard residue; d: D form. Nle = CCCC[C@H](N)C(=O)O
Assays:
[1] = biological target: T1, human PTHR1-H223R (Homo sapiens, UniProt Q03431, H223R); assay: Inverse agonism on basal cAMP signaling in GHR-10 cells; assay type: cell-based; settings: for inverse agonist properties on constitutively active PTHR1-H223R (basal cAMP): GHR-10 cells (HEK293/GloSensor); for Reduction of basal cAMP, % vehicle, After ligand washout / Reduction of basal cAMP, % vehicle, Ligand @ −6M: GHR-10 cells, from AUC, representative experiment; for Reduction of basal cAMP, % vehicle, After ligand washout: 26 minutes after washout of unbound ligand; for Reduction of basal cAMP, % vehicle, Ligand @ −6M: peptide 1×10^−6 M for 24 minutes
T1 construct: expressed in transfected cells; host or cells: GHR-10 (HEK-293 stably expressing GloSensor and PTHR1-H223R)
T1 sequence (Q03431 27-593 H223R): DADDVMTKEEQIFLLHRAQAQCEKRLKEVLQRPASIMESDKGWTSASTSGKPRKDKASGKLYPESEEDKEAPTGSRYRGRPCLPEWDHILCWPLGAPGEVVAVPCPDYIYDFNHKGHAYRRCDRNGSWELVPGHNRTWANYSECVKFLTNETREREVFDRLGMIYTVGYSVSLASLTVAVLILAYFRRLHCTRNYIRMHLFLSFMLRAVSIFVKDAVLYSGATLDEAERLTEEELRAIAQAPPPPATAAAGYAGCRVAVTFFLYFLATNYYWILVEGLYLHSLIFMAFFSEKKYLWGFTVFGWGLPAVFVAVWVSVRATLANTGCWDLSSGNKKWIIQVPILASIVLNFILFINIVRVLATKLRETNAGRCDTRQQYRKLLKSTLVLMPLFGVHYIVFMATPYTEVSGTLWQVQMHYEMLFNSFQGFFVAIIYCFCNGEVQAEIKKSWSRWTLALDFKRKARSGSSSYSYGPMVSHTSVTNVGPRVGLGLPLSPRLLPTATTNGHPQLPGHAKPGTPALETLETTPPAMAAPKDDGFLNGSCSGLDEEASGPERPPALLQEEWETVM
Method: (§1) cAMP signaling was assessed in the HEK293-derived or SaOS2-derived cell lines stably expressing the luciferase-based GloSensor™ cAMP reporter (Hattersley et al., Paper presented at: Novel Signaling Mechanisms and Bone Cell Biology 2014; Binkowski et al., Methods in molecular biology. 756:263-271). HEK-293 cells were further transfected to stably express the hPTHR1, hPTHR1-H223R, or hPTHR1-T410P. The cells were seeded into 96-well white plates and were assayed 24 to 48 hours post-confluency. Assays were performed at room temperature in CO2-independent culture media (Life Technologies, Corp., Carlsbad, Calif.) containing 0.1% BSA (CIDB). The cells were pre-loaded with luciferin (0.5 mM in CIDB) for 15 minutes, then PTH peptides were added at varying concentrations. cAMP-dependent luminescence was measured at two-minute intervals using a PerkinElmer Envision plate reader. The time at which maximum luminescence (cps) observed with agonist alone, typically at 10-20 minutes after agonist addition, was used to obtain data from wells containing antagonist with or without agonist, to thus generate antagonist ligand dose-response curves. The resulting cps values were then plotted against ligand concentration using GraphPad Prism 7.0 software and a four-parameter logistics curve fitting equation, which yielded parameters of inhibitory potency (pIC50).
(§2) These experiments were performed in HEK-293 cells stably transfected to express the GloSensor™ cAMP reporter along with a constitutively active mutant human PTHR1. The HEK-293 cells stably expressing GloSensor™ cAMP reporter along with a constitutively active mutant human PTHR1-H223R are GHR-10 cells. The HEK-293 cells stably expressing GloSensor™ cAMP reporter along with a constitutively active mutant human PTHR1-T410P are GTP-4 cells. The HEK-293 cells stably expressing GloSensor™ cAMP reporter along with a WT-PTHR1 are GP-2.3 cells. GP-2.3 cells were used as control. […] Effects on basal cAMP signaling over time were assessed during periods of direct ligand addition (FIGS. 15A-15F). The measurements were performed by recording GloSensor™ luminescence as counts per second (cps) using a PerkinElmer Envision plate reader. The data are illustrated in FIGS. 15A-15F. Data are from triplicate wells (means±SEM) of a single experiment representative of two others.
Persistence of the antagonist/inverse agonist effects (prolonged action) as follows. Effects of eight peptides on basal and PTH(1-34)-stimulated cAMP signaling by PTHR-H223R were assessed in GHR-10 cells (HEK-293-derived cells stably expressing glosensor cAMP reporter and PTHR1-H223R). Time courses of changes in cAMP levels were recorded in three consecutive phases:
1) after initial addition of a candidate antagonist/inverse agonist (1×10^−6 M-1×10^−9 M) to cells pre-loaded for […] with luciferin (left column);
2) after removal of unbound inverse agonist by extensive wash-out with buffer and replenishment with fresh luciferin-containing buffer (middle column); and
Control wells were treated with vehicle. GloSensor™ luminescence, as counts per second (cps), was recorded using a PerkinElmer Envision plate reader. Data are from duplicate wells (means±SEM) of a single experiment representative of two others. The results are illustrated in Table 7 and in FIGS. 16A-16C, 17A-17C, 18A-18C, 19A-19C, 20A-20C, 21A-21C, 22A-22C, and 23A-23C.
GHR10 cells were treated with vehicle or vehicle containing the indicated peptide for 24 minutes and cAMP-dependent luminescence was recorded at two-minute intervals. The cells were then washed to remove unbound ligand and media containing fresh luciferin was added, and cAMP luminescence was recorded for another 26 minutes. Percentage reduction was calculated from the area-under-the-curve (AUC) values derived from the time course plots using the equation: […]

[2] = biological target: T2, human PTHR1-T410P (Homo sapiens, UniProt Q03431, T410P); assay: Inverse agonism on basal cAMP signaling in GTP-4 cells; assay type: cell-based; settings: GTP-4 cells (HEK293/GloSensor)
T2 construct: expressed in transfected cells; host or cells: GTP-4 (HEK-293 stably expressing GloSensor and PTHR1-T410P)
T2 sequence (Q03431 27-593 T410P): T1 sequence (Q03431 27-593 H223R) with R197H, T384P
Method: as §1
as §2, with “cells.” for “cells. The HEK-293 cells stably expressing GloSensor™ cAMP reporter along with a WT-PTHR1 are GP-2.3 cells. GP-2.3 cells were used as control.”, “The data are illustrated in FIGS. 15A-15F. Data are from triplicate wells (means±SEM) of a single experiment representative of two others.” left out

## CC[C@H](C)[C@H](N)C(=O)N[C@@H](CCC(N)=O)C(=O)N[C@@H](CC(C)C)C(=O)N[C@@H](CCSC)C(=O)N[C@@H](Cc1c[nH]cn1)C(=O)N[C@@H](CCC(N)=O)C(=O)N[C@@H](CCCNC(=N)N)C(=O)N[C@H](Cc1c[nH]c2ccccc12)C(=O)N[C@@H](CCCCN)C(=O)N[C@@H](Cc1c[nH]c2ccccc12)C(=O)N[C@H](C(=O)N[C@@H](CCC(N)=O)C(=O)N[C@@H](CC(=O)O)C(=O)N[C@@H](C)C(=O)N[C@@H](CCCNC(=N)N)C(=O)N[C@@H](CCCNC(=N)N)C(=O)N[C@@H](CCCNC(=N)N)C(=O)N[C@@H](C)C(=O)N[C@@H](Cc1c[nH]c2ccccc12)C(=O)N[C@@H](CC(C)C)C(=O)N[C@@H](Cc1c[nH]cn1)C(=O)N[C@@H](CCCCN)C(=O)N[C@@H](CC(C)C)C(=O)N[C@H](C(=O)N[C@@H](C)C(=O)N[C@@H](CCC(=O)O)C(=O)N[C@H](C(=O)N[C@@H](Cc1c[nH]cn1)C(=O)N[C@H](C(=O)N[C@@H](C)C(=O)N[C@@H](CCC(=O)O)C(=O)N[C@H](C(N)=O)[C@@H](C)CC)[C@@H](C)O)[C@@H](C)CC)[C@@H](C)CC)[C@@H](C)CC [compound 1949, dW12, W23-LA-PTH(5-36)] (H-IQLMHQR[dW]KWIQDARRRAWLHKLIAEIHTAEI-NH2; N-terminus assumed)
[1]
  inverse agonist properties on constitutively active PTHR1-H223R (basal cAMP): exhibited inverse agonist properties
  Reduction of basal cAMP, % vehicle, After ligand washout: 30 % vehicle
  Reduction of basal cAMP, % vehicle, Ligand @ −6M: 41 % vehicle
[2]
  inverse agonist properties on constitutively active PTHR1-T410P (basal cAMP): exhibited inverse agonist properties

## CC[C@H](C)[C@H](NC(=O)[C@H](CCC(=O)O)NC(=O)[C@H](C)NC(=O)[C@@H](NC(=O)[C@H](Cc1c[nH]cn1)NC(=O)[C@@H](NC(=O)[C@H](CCC(=O)O)NC(=O)[C@H](C)NC(=O)[C@@H](NC(=O)[C@H](CC(C)C)NC(=O)[C@H](CCCCN)NC(=O)[C@H](Cc1c[nH]cn1)NC(=O)[C@H](CC(C)C)NC(=O)[C@H](Cc1c[nH]c2ccccc12)NC(=O)[C@H](C)NC(=O)[C@H](CCCNC(=N)N)NC(=O)[C@H](CCCNC(=N)N)NC(=O)[C@H](CCCNC(=N)N)NC(=O)[C@H](C)NC(=O)[C@H](CC(=O)O)NC(=O)[C@H](CCC(N)=O)NC(=O)[C@@H](NC(=O)[C@H](Cc1c[nH]c2ccccc12)NC(=O)[C@H](CCCCN)NC(=O)[C@@H](Cc1c[nH]c2ccccc12)NC(=O)[C@H](CCCNC(=N)N)NC(=O)[C@H](CCC(N)=O)NC(=O)[C@H](Cc1c[nH]cn1)NC(=O)[C@H](CCSC)NC(=O)[C@@H](N)CC(C)C)[C@@H](C)CC)[C@@H](C)CC)[C@@H](C)CC)[C@@H](C)O)C(N)=O [compound 1990, dW12, W23-LA-PTH(7-36)-1990] (H-LMHQR[dW]KWIQDARRRAWLHKLIAEIHTAEI-NH2; N-terminus assumed)
[1]
  inverse agonist properties on constitutively active PTHR1-H223R (basal cAMP): inverse agonist response
  Reduction of basal cAMP, % vehicle, After ligand washout: 39 % vehicle
  Reduction of basal cAMP, % vehicle, Ligand @ −6M: 50 % vehicle
[2]
  inverse agonist properties on constitutively active PTHR1-T410P (basal cAMP): inverse agonist response

## CCCC[C@H](NC(=O)[C@@H](N)CC(C)C)C(=O)N[C@@H](Cc1c[nH]cn1)C(=O)N[C@@H](CCC(N)=O)C(=O)N[C@@H](CCCNC(=N)N)C(=O)N[C@H](Cc1c[nH]c2ccccc12)C(=O)N[C@@H](CCCCN)C(=O)N[C@@H](Cc1c[nH]c2ccccc12)C(=O)N[C@H](C(=O)N[C@@H](CCC(N)=O)C(=O)N[C@@H](CC(=O)O)C(=O)N[C@@H](C)C(=O)N[C@@H](CCCNC(=N)N)C(=O)N[C@@H](CCCNC(=N)N)C(=O)N[C@@H](CCCNC(=N)N)C(=O)N[C@@H](C)C(=O)N[C@@H](Cc1c[nH]c2ccccc12)C(=O)N[C@@H](CC(C)C)C(=O)N[C@@H](Cc1c[nH]cn1)C(=O)N[C@@H](CCCCN)C(=O)N[C@@H](CC(C)C)C(=O)N[C@H](C(=O)N[C@@H](C)C(=O)N[C@@H](CCC(=O)O)C(=O)N[C@H](C(=O)N[C@@H](Cc1c[nH]cn1)C(=O)N[C@H](C(=O)N[C@@H](C)C(=O)N[C@@H](CCC(=O)O)C(=O)N[C@H](C(N)=O)[C@@H](C)CC)[C@@H](C)O)[C@@H](C)CC)[C@@H](C)CC)[C@@H](C)CC [compound 1992, Nle8, dW12, W23-LA-PTH(7-36)-1992] (H-L[Nle]HQR[dW]KWIQDARRRAWLHKLIAEIHTAEI-NH2; N-terminus assumed)
[1]
  inverse agonist properties on constitutively active PTHR1-H223R (basal cAMP): inverse agonist response
  Reduction of basal cAMP, % vehicle, After ligand washout: 40 % vehicle
  Reduction of basal cAMP, % vehicle, Ligand @ −6M: 51 % vehicle
[2]
  inverse agonist properties on constitutively active PTHR1-T410P (basal cAMP): inverse agonist response

Source: US20190119348A1, “PARATHYROID HORMONE RECEPTOR 1 ANTAGONIST AND INVERSE AGONIST POLYPEPTIDES AND METHODS OF THEIR USE” (The General Hospital Corporation, priority 2016, published 2019)
